Experiments:
[1] = target: T1, purified recombinant human MMP-2 (Homo sapiens, UniProt P08253); experiment: MMP-2 quenched fluorescence screening assay; type: biochemical; conditions: 96-well quenched fluorescence assay, same fluorogenic peptide substrate
T1 construct: made in house
T1 sequence (P08253 110-660): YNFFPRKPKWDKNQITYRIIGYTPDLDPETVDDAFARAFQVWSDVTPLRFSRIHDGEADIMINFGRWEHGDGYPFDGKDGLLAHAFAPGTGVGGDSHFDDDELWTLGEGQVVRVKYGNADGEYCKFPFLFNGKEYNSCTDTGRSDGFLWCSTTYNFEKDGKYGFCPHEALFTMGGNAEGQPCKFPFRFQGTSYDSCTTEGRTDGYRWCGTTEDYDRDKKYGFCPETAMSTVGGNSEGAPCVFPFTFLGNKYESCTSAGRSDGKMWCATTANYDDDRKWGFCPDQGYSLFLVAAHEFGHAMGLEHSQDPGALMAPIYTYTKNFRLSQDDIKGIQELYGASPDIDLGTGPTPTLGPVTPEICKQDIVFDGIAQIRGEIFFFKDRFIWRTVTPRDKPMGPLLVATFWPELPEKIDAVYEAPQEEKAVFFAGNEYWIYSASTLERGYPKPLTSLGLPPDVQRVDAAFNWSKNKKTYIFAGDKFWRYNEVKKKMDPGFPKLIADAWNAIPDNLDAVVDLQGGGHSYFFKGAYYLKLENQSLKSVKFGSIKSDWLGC
Procedure: (§1) A high-throughput, 96-well screen was used to measure MMP-9 activity and to detect potential inhibitors of MMP-9. The screen is a quenched fluorescence assay. The components of the assay include purified recombinant human MMP-9 (generated by. SB, 3 nM final concentration) and a fluorogenic peptide substrate (Peptides International, Louisville, Ky., 10 (M final concentration) incubated in the presence or absence of compound. Briefly, enzyme activity is measured after 30 minutes incubation at 37(C. and quantitated using a peptide substrate, (Dnp-Pro-Cha-Gly-Cys(Me)-His-Ala-Lys(NMa)-NH2 or (2,4-Dinitrophenyl-L-Prolyl-L-Cyclohexylalanyl-Glycyl(-Methyl-L-Cysteinyl-L-Histidyl-L-Alanyl-N(-Methylenthranoyl-L-Lysine Amide) containing a fluorophore, Nma, on one end of the peptide and a quencher, Dnp, on the other end. When the peptide is intact, the fluorophore is quenched. When the peptide is cleaved by MMP-9, the quencher is dissociated from the fluorophore and a fluorescent signal is emitted that can easily be detected using a fluorescent plate reader. The universal cleavage site within the peptide that is recognized by MMP-1, -2, -3, -9 and -13 is the Gly-Cys bond.
(§2) A 96-well quenched fluorescence assay was used to measure MMP-9 and MMP-2 activity and to detect potential inhibitors of MMP-9 and MMP-2. […] For these additional screens, an IC50 value was determined. […]

[2] = target: T2, purified recombinant human MMP-9 (Homo sapiens, UniProt P14780); experiment: MMP-9 quenched fluorescence screening assay; type: biochemical; conditions: 96-well quenched fluorescence assay, fluorogenic peptide substrate, 30 minutes at 37 C
T2 construct: made in house
Procedure: as §1, §2

T2 sequence (P14780 94-707): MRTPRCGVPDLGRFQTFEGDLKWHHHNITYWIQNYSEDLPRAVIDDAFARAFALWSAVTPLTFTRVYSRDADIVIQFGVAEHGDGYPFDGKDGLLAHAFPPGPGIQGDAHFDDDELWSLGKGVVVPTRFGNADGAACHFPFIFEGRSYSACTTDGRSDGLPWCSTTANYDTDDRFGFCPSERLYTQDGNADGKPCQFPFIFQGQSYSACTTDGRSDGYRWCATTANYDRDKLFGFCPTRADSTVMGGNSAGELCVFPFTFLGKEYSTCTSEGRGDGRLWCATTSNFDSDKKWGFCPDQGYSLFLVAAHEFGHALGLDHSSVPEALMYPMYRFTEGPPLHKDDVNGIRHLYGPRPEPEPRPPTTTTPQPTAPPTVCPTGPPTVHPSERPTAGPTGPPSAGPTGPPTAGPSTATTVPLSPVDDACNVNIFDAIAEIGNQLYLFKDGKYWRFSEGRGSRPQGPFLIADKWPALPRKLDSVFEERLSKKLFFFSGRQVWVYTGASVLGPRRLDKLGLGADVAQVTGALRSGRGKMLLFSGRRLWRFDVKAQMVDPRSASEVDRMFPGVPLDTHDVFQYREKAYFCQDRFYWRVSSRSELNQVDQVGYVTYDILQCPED

CCCCCCCCC[C@H](CC(=O)O)C(=O)N[C@@H](C(=O)NC)c1ccccc1 [Example 1, N-[2(R)-Nonylsuccinic acid]-L-phenylglycine-N-methylamide]
MMP-2 inhibition (screening result in words) [1]: identified as a dual MMP-2/MMP-9 inhibitor
MMP-9 inhibition (screening result in words) [2]: identified as a dual MMP-2/MMP-9 inhibitor
